Results on 28 molecules are retold here after patent US9290478B2, “Substituted quinoxalines as FGFR kinase inhibitors” (ASTEX THERAPEUTICS LTD, priority 2010, dated 2016).

One data set deals with KDR (h) (VEGFR2) (Homo sapiens, UniProt P35968). Nature of the data set: KDR (VEGFR2) (enzymatic assay), TR-FRET. To be noted: 3 μM ATP; for IC50: read-out: VEGFR2 (KDR) pIC50 (converted). The format is biochemical. As to the method: KDR (VEGFR2) (Enzymatic Assay)
In a final reaction volume of 30 μL, KDR (h) (150 ng/ml) was incubated with 50 mM HEPES pH 7.5, 6 mM MnCl2, 1 mM DTT, 0.1 mM Na3VO4, 0.01% Triton-X-100, 500 nM Btn-Flt3 and 3 μM ATP in the presence of compound (1% DMSO final). After incubation for 120 minutes at room temperature the reaction was stopped with 2.27 nM EU-anti P-Tyr, 7 mM EDTA, 31.25 nM SA-XL-665 and 0.02% BSA which was present for 60 minutes at room temperature. Time-Resolved Fluorescence Resonance Energy Transfer (TR-FRET) signal (ex340 nm. Em 620 nm, em 655 nm) was measured afterwards and results are expressed in RFU (Relative Fluorescence Units). In this assay, the inhibitory effect of different compound concentrations (range 10 μM to 0.1 nM) was determined and used to calculate an IC50 (M) and pIC50 (−log IC50) value.
On the technique in general: Time-resolved FRET reads energy transfer from a long-lived donor to a nearby acceptor.

Another data set addresses T1, VEGFR2 (Homo sapiens, UniProt P35968).
T1 construct: purchased Upstate
Nature of the data set: Biological Assays B: VEGFR2 in vitro kinase inhibitory activity assay. Conditions: 0.5 μM ATP, read-out: VEGFR2 pIC50 (converted). The format is biochemical. How it is done:
(§1) Biological Assays B FGFR3, VEGFR2 and PDGFR In Vitro Kinase Inhibitory Activity Assays
(§2) Enzymes (from Upstate), prepared at 2× final concentration, were incubated with test compounds, biotinylated Fit3 substrate (biotin-VASSDNEYFYVDF) (Cell Signalling Technology Inc.) and ATP in the appropriate assay buffer (Table 1). The reaction was allowed to proceed for 3 hours (FGFR3), 1 hour (VEGFR2, PDGFR-beta) at room temperature on a plate shaker at 700 rpm before being stopped with 35 mM EDTA, pH 8 (FGFR3, VEGFR2) or 55 mM EDTA, pH 8 (PDGFR-beta). 5× detection mix (50 mM HEPES pH 7.5, 0.1% BSA, 11.34 nM Eu-anti-pY (PY20) (PerkinElmer) 74 nM SA-XL665 (Cisbio) for FGFR3, 50 mM HEPES, pH 7.5, 0.1% BSA, 11.34 nM Eu-anti-pY (PY20), 187.5 nM SA-XL665 for VEGFR2 and 50 mM HEPES, pH 7.5, 0.1% BSA, 11.34 nM Eu-anti-pY (PT66) (PerkinElmer), 375 nM SA-XL665 (Cisbio) for PDGFR-beta) was then added to each well and the plate sealed and incubated at room temperature for one hour on a plate shaker at 700 rpm. The plate was then read on a Packard Fusion plate reader or a BMG Pherastar both in TRF mode.

For the next data set, the target named is T2, Ba/F3-TEL-FGFR3 cells (Homo sapiens, UniProt P22607).
T2 construct: fused on or other part: P41212 (Transcription factor ETV6)
T2 sequence (P22607 whole entry, change not shown, the tested form may be a part): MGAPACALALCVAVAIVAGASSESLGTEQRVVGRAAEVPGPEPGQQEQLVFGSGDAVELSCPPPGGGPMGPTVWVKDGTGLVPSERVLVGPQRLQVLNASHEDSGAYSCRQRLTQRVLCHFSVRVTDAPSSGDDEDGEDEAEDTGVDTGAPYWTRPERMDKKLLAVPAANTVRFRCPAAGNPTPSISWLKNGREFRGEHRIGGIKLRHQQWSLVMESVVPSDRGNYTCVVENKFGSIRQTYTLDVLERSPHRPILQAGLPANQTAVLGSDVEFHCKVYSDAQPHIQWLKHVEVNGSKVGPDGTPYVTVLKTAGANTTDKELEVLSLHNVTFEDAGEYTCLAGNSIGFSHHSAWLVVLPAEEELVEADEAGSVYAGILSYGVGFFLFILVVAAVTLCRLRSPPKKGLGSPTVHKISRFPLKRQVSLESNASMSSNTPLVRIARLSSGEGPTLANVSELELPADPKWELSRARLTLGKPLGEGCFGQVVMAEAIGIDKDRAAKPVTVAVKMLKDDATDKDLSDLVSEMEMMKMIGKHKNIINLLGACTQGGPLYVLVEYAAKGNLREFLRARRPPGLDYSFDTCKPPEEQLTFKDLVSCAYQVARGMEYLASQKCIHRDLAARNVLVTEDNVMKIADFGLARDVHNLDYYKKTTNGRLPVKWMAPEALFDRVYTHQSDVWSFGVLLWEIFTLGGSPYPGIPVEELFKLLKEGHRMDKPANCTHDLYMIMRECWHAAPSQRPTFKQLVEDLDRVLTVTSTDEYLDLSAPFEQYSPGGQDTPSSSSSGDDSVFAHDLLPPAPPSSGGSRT
Nature of the data set: Ba/F3-TEL-FGFR3 cell proliferation assay. The format is cell-based. Conditions: 72 hours. As to the method: (§3) Ba/F3-TEL-FGFR3 & Ba/F3 (WT) Cell Proliferation Assays
(§4) Stably transfected Ba/F3-TEL-FGFR3 cells were plated out into black 96-well tissue culture plates with clear bottoms in RPMI medium containing 10% FBS and 0.25 mg/ml G418 at a density of 5×10^3 cells/well (200 μl per well). The parental wild-type Ba/F3 cells (DSMZ no.: ACC 300) were plated out into black 96-well tissue culture plates with clear bottoms in RPMI medium containing 10% FBS and 2 ng/ml mouse IL-3 (R&D Sysems) at a density of 2.5×10^3 cells/well (200 μl per well). Plates were placed in an incubator overnight before adding the compounds the following day. Dilutions of compounds were made in DMSO starting at 10 mM and were diluted into the wells to give a final DMSO concentration of 0.1% in assay. Compounds were left on the cells for 72 hours before the plates were removed from the incubator and 20 μl of Alamar Blue™ (Biosource) was added to each well. Plates were placed in the incubator for 4-6 hours before reading plates at 535 nm (excitation)/590 nm (emission) on a Fusion plate reader (Packard). Where inhibition is high an IC50 can be determined.

The test system of data set [1] is parental wild-type Ba/F3 cells. Nature of the data set: Ba/F3 (WT) cell proliferation assay. The format is cell-based. To be noted: BaF3; 72 hours, 2 ng/ml mouse IL-3; read-out: BAF3_WT pIC50 (converted). How it is done: as §3, §4
For the next data set, the target named is T3, FGFR3 (Homo sapiens, UniProt P22607).
T3 construct: purchased Upstate
T3 sequence (P22607 23-806): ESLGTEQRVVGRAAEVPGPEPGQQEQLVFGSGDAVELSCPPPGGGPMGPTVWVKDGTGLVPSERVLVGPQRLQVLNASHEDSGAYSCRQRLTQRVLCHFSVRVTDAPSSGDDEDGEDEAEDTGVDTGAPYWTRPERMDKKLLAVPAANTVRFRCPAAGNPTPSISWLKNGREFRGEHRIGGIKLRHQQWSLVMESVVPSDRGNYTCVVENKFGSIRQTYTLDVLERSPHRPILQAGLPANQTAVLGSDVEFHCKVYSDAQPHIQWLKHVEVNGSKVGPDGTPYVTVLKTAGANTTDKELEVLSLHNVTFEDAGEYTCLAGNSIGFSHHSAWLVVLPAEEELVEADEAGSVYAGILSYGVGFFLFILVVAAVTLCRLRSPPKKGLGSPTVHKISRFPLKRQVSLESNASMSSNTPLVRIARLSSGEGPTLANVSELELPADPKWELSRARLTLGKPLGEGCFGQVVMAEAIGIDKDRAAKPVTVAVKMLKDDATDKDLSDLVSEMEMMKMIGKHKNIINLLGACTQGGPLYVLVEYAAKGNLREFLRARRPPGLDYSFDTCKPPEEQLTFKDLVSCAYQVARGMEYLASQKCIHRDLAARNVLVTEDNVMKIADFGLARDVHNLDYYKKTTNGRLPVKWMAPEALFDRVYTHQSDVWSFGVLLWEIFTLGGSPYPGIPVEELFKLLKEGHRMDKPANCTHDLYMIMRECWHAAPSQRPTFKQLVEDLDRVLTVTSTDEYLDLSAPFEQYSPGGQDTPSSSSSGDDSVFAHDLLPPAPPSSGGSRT
Nature of the data set: Biological Assays B: FGFR3 in vitro kinase inhibitory activity assay. It is filed as biochemical. To be noted: 8 μM ATP, read-out: FGFR3 pIC50 (converted). As to the method:
as §1, §2

T1 sequence (P35968 20-1356): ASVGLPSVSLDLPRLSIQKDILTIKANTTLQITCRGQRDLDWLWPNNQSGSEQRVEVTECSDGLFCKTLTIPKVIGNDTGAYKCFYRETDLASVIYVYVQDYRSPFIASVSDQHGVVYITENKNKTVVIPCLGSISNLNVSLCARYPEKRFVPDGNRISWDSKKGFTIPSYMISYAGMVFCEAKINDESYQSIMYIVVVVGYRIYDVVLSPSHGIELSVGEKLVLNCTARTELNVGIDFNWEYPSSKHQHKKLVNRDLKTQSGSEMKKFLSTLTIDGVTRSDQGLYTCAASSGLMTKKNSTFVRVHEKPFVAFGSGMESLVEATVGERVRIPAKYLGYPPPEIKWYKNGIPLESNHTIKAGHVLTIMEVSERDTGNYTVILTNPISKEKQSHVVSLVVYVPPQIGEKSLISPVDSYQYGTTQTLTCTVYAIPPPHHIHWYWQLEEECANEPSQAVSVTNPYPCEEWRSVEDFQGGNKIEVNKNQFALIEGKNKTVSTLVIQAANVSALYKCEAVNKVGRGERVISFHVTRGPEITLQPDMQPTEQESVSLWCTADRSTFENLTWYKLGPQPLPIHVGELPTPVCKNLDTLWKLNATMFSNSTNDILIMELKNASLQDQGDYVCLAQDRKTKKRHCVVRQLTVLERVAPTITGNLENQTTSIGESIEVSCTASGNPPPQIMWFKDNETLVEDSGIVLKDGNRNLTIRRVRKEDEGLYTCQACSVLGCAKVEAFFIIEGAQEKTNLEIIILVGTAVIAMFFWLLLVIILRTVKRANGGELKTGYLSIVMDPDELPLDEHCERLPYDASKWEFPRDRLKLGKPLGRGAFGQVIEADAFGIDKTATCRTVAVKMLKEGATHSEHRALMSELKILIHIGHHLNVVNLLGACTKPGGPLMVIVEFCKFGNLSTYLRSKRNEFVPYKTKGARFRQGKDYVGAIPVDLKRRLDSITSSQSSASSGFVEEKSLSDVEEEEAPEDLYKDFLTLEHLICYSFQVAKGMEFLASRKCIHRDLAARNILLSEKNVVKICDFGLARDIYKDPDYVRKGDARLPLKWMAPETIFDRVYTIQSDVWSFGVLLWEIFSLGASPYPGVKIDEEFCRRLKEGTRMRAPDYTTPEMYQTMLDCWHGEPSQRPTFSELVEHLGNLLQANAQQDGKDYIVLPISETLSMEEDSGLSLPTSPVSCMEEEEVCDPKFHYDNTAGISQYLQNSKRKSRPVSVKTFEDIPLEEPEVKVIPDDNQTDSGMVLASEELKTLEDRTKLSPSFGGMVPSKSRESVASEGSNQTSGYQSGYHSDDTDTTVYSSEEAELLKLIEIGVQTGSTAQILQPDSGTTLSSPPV
KDR (h) (VEGFR2), sequence (P35968 20-1356): as above

Regarding `COc1cc(OC)cc(C(CCCN)c2ccc3ncc(-c4cnn(C)c4)nc3c2)c1.Cl` (centres unmarked) [Compound 40], the melting point (as a rule, the temperature of the solid-liquid transition) is 140 °C. Besides, the IC50 at KDR (h) (VEGFR2) was above 1 µM. With `COc1cc(OC)cc(C(CCNCC(F)(F)F)c2ccc3ncc(-c4cnn(C)c4)nc3c2)c1.Cl` (centres unmarked) [Compound 33], the melting point is 162 °C. Moreover, the IC50 on KDR (h) (VEGFR2) is above 1 µM. In turn, `COc1cc(OC)cc(/C(=C/CN(C)C)c2ccc3ncc(-c4cnn(C)c4)nc3c2)c1` [Compound 34] displayed a melting point of 177 °C. The IC50 on KDR (h) (VEGFR2) is above 1 µM. With `COc1cc(OC)cc(C(CCNC(C)C)c2ccc3ncc(-c4cnn(C)c4)nc3c2)c1` (single isomer, unassigned) [Compound 19a], the IC50 at KDR (h) (VEGFR2) was above 1 µM. Take `COc1cc(OC)cc(/C(=C/C#N)c2ccc3ncc(-c4cnn(C)c4)nc3c2)c1` [Compound 3]: the melting point is 223 °C. On KDR (h) (VEGFR2), the IC50 is 3.98 µM. On to `COc1cc(OC)cc(C(CC(C)(O)CNC(C)C)c2ccc3ncc(-c4cnn(C)c4)nc3c2)c1.Cl` (centres unmarked) [Compound 25], for which the IC50 at KDR (h) (VEGFR2) was 0.562 µM. Same read-out and setting: the result for `COc1cc(OC)cc(C(O)(CNCCNC(C)C)c2ccc3ncc(-c4cnn(C)c4)nc3c2)c1` (single isomer, unassigned) [Compound 5] reads above 1 µM.

On to `COc1cc(OC)cc(C(NCCNC(C)C)c2ccc3ncc(-c4cnn(C)c4)nc3c2)c1.Cl` (single isomer, unassigned) [Compound 39], for which the “VEGFR2 (KDR) pIC50” value on KDR (h) (VEGFR2) was below 6.

For `COc1cc(OC)cc(C(CCN)c2ccc3ncc(-c4cnn(C)c4)nc3c2)c1.Cl` (centres unmarked) [Compound 20], the melting point worked out at 211 °C. Besides, the IC50 on VEGFR2 was 3.16 µM. On KDR (h) (VEGFR2), the IC50 is 4.68 µM. For the molecule `COc1cc(OC)cc(/C(=C\C#N)c2ccc3ncc(-c4cnn(C)c4)nc3c2)c1` [Compound 4], the melting point amounted to 204 °C. Also, the IC50 at KDR (h) (VEGFR2) is 0.661 µM.

Take `COc1cc(OC)cc(C(NCCNC(C)C)c2ccc3ncc(-c4cnn(C)c4)nc3c2)c1.Cl` (single isomer, unassigned) [Compound 24]: the IC50 on KDR (h) (VEGFR2) is above 1 µM. As to `COc1cc(OC)cc(/C(=C\CNC(C)C)c2ccc3ncc(-c4cnn(C)c4)nc3c2)c1` [Compound 8, {(Z)-3-(3,5-Dimethoxy-phenyl)-3-[3-(1-methyl-1H-pyrazol-4-yl)-quinoxalin-6-yl]-allyl}-isopropyl-amine], the melting point was found to be 164 °C. The IC50 at KDR (h) (VEGFR2) was 0.389 µM.

The molecule `COc1cc(OC)cc(C(=O)c2ccc3ncc(-c4cnn(C)c4)nc3c2)c1` [Compound 2] showed a melting point of 162 °C. Further, on KDR (h) (VEGFR2), the IC50 is 0.708 µM.

In the case of `COc1cc(OC)cc(/C(=C\CNCC(F)(F)F)c2ccc3ncc(-c4cnn(C)c4)nc3c2)c1` [Compound 14, {(Z)-3-(3,5-Dimethoxy-phenyl)-3-[3-(1-methyl-1H-pyrazol-4-yl)-quinoxalin-6-yl]-allyl}-(2,2,2-trifluoro-ethyl)-amine], the IC50 on KDR (h) (VEGFR2) was 0.245 µM. `COc1cc(OC)cc(/C(=C\CN(C)C)c2ccc3ncc(-c4cnn(C)c4)nc3c2)c1` [Compound 10, {(Z)-3-(3,5-Dimethoxy-phenyl)-3-[3-(1-methyl-1H-pyrazol-4-yl)-quinoxalin-6-yl]-allyl}-dimethyl-amine] returned a melting point of 164 °C. Moreover, the IC50 on KDR (h) (VEGFR2) was above 1 µM. As for `COc1cc(OC)cc(C(CCNC(C)C)c2ccc3ncc(-c4cnn(C)c4)nc3c2)c1` (single isomer, unassigned) [Compound 32a], the IC50 at KDR (h) (VEGFR2) is above 10 µM.

As for `COc1cc(OC)cc(C(CCN(C)C)c2ccc3ncc(-c4cnn(C)c4)nc3c2)c1.Cl` (centres unmarked) [Compound 21], the IC50 on KDR (h) (VEGFR2) is above 1 µM.

`COc1cc(OC)cc(C(CCNC(C)C)c2ccc3ncc(-c4cnn(C)c4)nc3c2)c1.Cl` (centres unmarked) [Compound 29, {3-(3,5-Dimethoxy-phenyl)-3-[3-(1-methyl-1H-pyrazol-4-yl)-quinoxalin-6-yl]-propyl}-isopropyl-amine]: the melting point was 148 °C. Further, the IC50 on VEGFR2 was 1 µM. Further, the “BAF3_TEL_FGFR3 pIC50” value at Ba/F3-TEL-FGFR3 cells is reported as 7.7. Further, the IC50 in data set [1] was 5.01 µM. The IC50 on KDR (h) (VEGFR2) is above 1 µM. Further, at FGFR3, the IC50 is 0.02 µM. Consider `Cn1cc(-c2cnc3ccc(C(O)c4ccccc4)cc3n2)cn1` (centres unmarked) [Compound 28], for which the IC50 on KDR (h) (VEGFR2) was 1.58 µM. Still for that read-out and setting: the result for `COc1cc(OC)cc(C(CCN2CCCC2=O)c2ccc3ncc(-c4cnn(C)c4)nc3c2)c1.Cl` (centres unmarked) [Compound 7] reads 0.347 µM. `COc1cc(OC)cc(C(CC#N)c2ccc3ncc(-c4cnn(C)c4)nc3c2)c1` (centres unmarked) [Compound 18]: the IC50 at VEGFR2 was 6.31 µM; at KDR (h) (VEGFR2), above 1 µM. As for `CNCC(O)(c1cc(OC)cc(OC)c1)c1ccc2ncc(-c3cnn(C)c3)nc2c1.Cl` (single isomer, unassigned) [Compound 38], the melting point was 169 °C. For the same molecule, the “VEGFR2 (KDR) pIC50” value on KDR (h) (VEGFR2) is reported as below 6. `COc1cc(OC)cc(C2(c3ccc4ncc(-c5cnn(C)c5)nc4c3)CC2)c1` [Compound 30] came in with a melting point of 140 °C. In addition, the IC50 at VEGFR2 is 0.282 µM. In addition, the IC50 on KDR (h) (VEGFR2) is 0.501 µM. Further, at FGFR3, the IC50 is 0.02 µM. In turn, `COc1cc(OC)cc(C(CC(=O)NC(C)C)c2ccc3ncc(-c4cnn(C)c4)nc3c2)c1` (centres unmarked) [Compound 23] had a melting point of 186 °C. The IC50 at KDR (h) (VEGFR2) is above 1 µM.

With `COc1cc(OC)cc(C(CCO)c2ccc3ncc(-c4cnn(C)c4)nc3c2)c1` (centres unmarked) [Compound 22], the melting point turned out to be 114 °C. Moreover, the IC50 on VEGFR2 was 3.98 µM. Also, on Ba/F3-TEL-FGFR3 cells, the “BAF3_TEL_FGFR3 pIC50” value is on record as 6.85. Also, the IC50 on KDR (h) (VEGFR2) was above 1 µM. Molecule `CNCC(O)(c1cc(OC)cc(OC)c1)c1ccc2ncc(-c3cnn(C)c3)nc2c1.Cl` (single isomer, unassigned) [Compound 37] displayed a melting point of 174 °C. For the same molecule, the IC50 on KDR (h) (VEGFR2) is above 1 µM.

As to `COc1cc(OC)cc(/C(=C/CNC(C)C)c2ccc3ncc(-c4cnn(C)c4)nc3c2)c1` [Compound 9], the IC50 at KDR (h) (VEGFR2) was 4.47 µM. Same read-out and setting: under `CN(C)CCC(c1ccccc1)c1ccc2ncc(-c3cnn(C)c3)nc2c1` (centres unmarked) [Compound 35] stands above 1 µM.
